Measurements reported in PMC4966941 (PLoS ONE, 2016).
Where a name gives a salt, the structure may show the parent alone.

Columns and labels:
[1] = system: human corneal endothelial cells; design: method as in Yoeruek et al. [40]; conditions: ref Yoeruek et al. [40]; cited from earlier work
[2] = In-vivo pharmacokinetic study: vancomycin in tibia, muscle and plasma after intramedullary delivery (HPLC); conditions: rat; for Mean vancomycin concentration in gastrocnemius muscle (ug drug/g tissue, AVE) / Mean vancomycin concentration in tibia (ug drug/g tissue, AVE): single 25 mg/Kg intramedullary dose to tibia, mean of n = 4; for Vancomycin in muscle, ug drug/g tissue / Vancomycin in plasma: single rat
[3] = system: chondrocyte (N1511) cells; design: method as in Antoci et al. [39]; conditions: ref Antoci et al. [39]; cited from earlier work
[4] = system: osteosarcoma cell line MG-63; design: method as in Edin et al. [38]; conditions: MG-63 in vitro; ref Edin et al. [38]; cited from earlier work
[5] = system: osteoblast (MC3T3-E1) cells; design: method as in Antoci et al. [39]; conditions: ref Antoci et al. [39]; cited from earlier work
[6] = patient with normal renal function, intravenous infusion; ref [11], [21]; cited from earlier work
[7] = system: Staphylococcus aureus Xen 36; assay: In-vivo infection prevention study: X-ray and micro-CT signs of tibial osteomyelitis
Experimental: Bioluminescent strain Staphylococcus aureus Xen 36 (Caliper LifeSciences, Alameda, CA) was used to develop bone infection. The strain was stored in a glycerol (20% v/v) and Brain Heart Infusion (BHI) suspension at -80°C until required. Bacteria were subcultured onto an LB plate (Luria-Bertani, Miller broth mixed with 1.2% (w/v) Technical Agar (Difco, Sparks, MD.)), at 37°C overnight. Five colonies were then transferred to 3 mL LB broth and grown in shaker incubator (200 rpm), at 37°C for 2.5 h. Two milliliters of the bacterial suspension was transferred to 100 mL LB broth and grown for a further 4 h, until the cells reached exponential growth. Bacterial suspension was transferred into 50 mL centrifuge tubes and cells centrifuged at ~3,000 rpm for 30 min. Supernatants were discarded and pellets were re-suspended in 15 mL Phosphate Buffered Saline (PBS). Cells were then mixed by vortexing and the centrifugation process was repeated. This cell washing process was repeated three times. The final washed and pelleted cells were re-suspended in a total of 10 mL PBS, and mixed by vortexing. The cell suspension was then ten-fold serially diluted. The concentration of the cell suspension was then determined using the spread plate technique and spreading 100 μL of the various dilutions onto LB plates, in duplicate. Plates were incubated at 37°C overnight before counting colony forming units (CFU). […]

[8] = single 25 mg/Kg intramedullary dose, 4 h, HPLC, sample 1-1
[9] = single 25 mg/Kg intramedullary dose, 4 h, HPLC, sample 1-3
[10] = single 25 mg/Kg intramedullary dose, 4 h, HPLC, sample 1-4
[11] = single 25 mg/Kg intramedullary dose, 6 h, HPLC, sample 2-1
[12] = single 25 mg/Kg intramedullary dose, 6 h, HPLC, sample 2-2
[13] = single 25 mg/Kg intramedullary dose, 6 h, HPLC, sample 2-3
[14] = single 25 mg/Kg intramedullary dose, 6 h, HPLC, sample 2-4
[15] = single 25 mg/Kg intramedullary dose, 12 h, HPLC, sample 3-1
[16] = single 25 mg/Kg intramedullary dose, 12 h, HPLC, sample 3-2
[17] = single 25 mg/Kg intramedullary dose, 12 h, HPLC, sample 3-3
[18] = single 25 mg/Kg intramedullary dose, 12 h, HPLC, sample 3-4
[19] = single 25 mg/Kg intramedullary dose, 24 h, HPLC, sample 4-1
[20] = single 25 mg/Kg intramedullary dose, 24 h, HPLC, sample 4-2
[21] = single 25 mg/Kg intramedullary dose, 24 h, HPLC, sample 4-3
[22] = single 25 mg/Kg intramedullary dose, 24 h, HPLC, sample 4-4
[23] = single 25 mg/Kg intramedullary dose, 48 h, HPLC, sample 5-1
[24] = single 25 mg/Kg intramedullary dose, 48 h, HPLC, sample 5-2
[25] = single 25 mg/Kg intramedullary dose, 48 h, HPLC, sample 5-4
[26] = single 25 mg/Kg intramedullary dose, 72 h, HPLC, sample 6-2
[27] = single 25 mg/Kg intramedullary dose, 72 h, HPLC, sample 6-3
[28] = single 25 mg/Kg intramedullary dose, 72 h, HPLC, sample 6-4
[29] = single 25 mg/Kg intramedullary dose, 96 h, HPLC, sample 7-1
[30] = single 25 mg/Kg intramedullary dose, 96 h, HPLC, sample 7-2
[31] = single 25 mg/Kg intramedullary dose, 96 h, HPLC, sample 7-3
[32] = single 25 mg/Kg intramedullary dose, 96 h, HPLC, sample 7-4
[33] = single 25 mg/Kg intramedullary dose, HPLC

CN[C@H](CC(C)C)C(=O)N[C@H]1C(=O)N[C@@H](CC(N)=O)C(=O)N[C@H]2C(=O)N[C@H]3C(=O)N[C@H](C(=O)N[C@H](C(=O)O)c4cc(O)cc(O)c4-c4cc3ccc4O)[C@H](O)c3ccc(c(Cl)c3)Oc3cc2cc(c3O[C@@H]2O[C@H](CO)[C@@H](O)[C@H](O)[C@H]2O[C@H]2C[C@](C)(N)[C@H](O)[C@H](C)O2)Oc2ccc(cc2Cl)[C@H]1O [vancomycin, vancomycin hydrochloride]
Vancomycin concentrations leading to near total destruction [1]: over 10 mg/mL | Vancomycin concentrations leading to significant reductions in viability [1]: higher than 5 mg/mL | Therapeutic or supra-therapeutic bone concentrations of vancomycin ([2]; local delivery to the medullary canal): > 100 µg/mL | Time the infused drug stays in the bone ([2]; single 25 mg/Kg intramedullary dose): at least 96 hours | Mean vancomycin concentration in gastrocnemius muscle (ug drug/g tissue, AVE) ([2]; 4 h, HPLC): 167.793 µg/g | Mean vancomycin concentration in tibia (ug drug/g tissue, AVE) ([2]; 4 h, HPLC): 818.068 µg/g | Mean vancomycin concentration in gastrocnemius muscle (ug drug/g tissue, AVE) ([2]; 6 h, HPLC): 90.1696 µg/g | Mean vancomycin concentration in tibia (ug drug/g tissue, AVE) ([2]; 6 h, HPLC): 784.095 µg/g | Mean vancomycin concentration in gastrocnemius muscle (ug drug/g tissue, AVE) ([2]; 12 h, HPLC): 29.0616 µg/g | Mean vancomycin concentration in tibia (ug drug/g tissue, AVE) ([2]; 12 h, HPLC): 359.143 µg/g | Mean vancomycin concentration in gastrocnemius muscle (ug drug/g tissue, AVE) ([2]; 24 h, HPLC): 0 µg/g | Mean vancomycin concentration in gastrocnemius muscle (ug drug/g tissue, AVE) ([2]; 48 h, HPLC): 0.99 µg/g | Mean vancomycin concentration in tibia (ug drug/g tissue, AVE) ([2]; 48 h, HPLC): 515.375 µg/g | Mean vancomycin concentration in gastrocnemius muscle (ug drug/g tissue, AVE) ([2]; 72 h, HPLC): 0.6895 µg/g | Mean vancomycin concentration in tibia (ug drug/g tissue, AVE) ([2]; 72 h, HPLC): 130.325 µg/g | Mean vancomycin concentration in gastrocnemius muscle (ug drug/g tissue, AVE) ([2]; 96 h, HPLC): 1.205 µg/g | Mean vancomycin concentration in tibia (ug drug/g tissue, AVE) ([2]; 96 h, HPLC): 110.095 µg/g | Vancomycin in muscle, ug drug/g tissue [2, 8]: 0 ug drug/g tissue | Vancomycin in plasma [2, 8]: 2.855 µg/mL | Vancomycin in muscle, ug drug/g tissue ([2]; single 25 mg/Kg intramedullary dose, 4 h, HPLC, sample 1-2): 0 ug drug/g tissue | Vancomycin in muscle, ug drug/g tissue [2, 9]: 0 ug drug/g tissue | Vancomycin in plasma [2, 9]: 2.69 µg/mL | Vancomycin in muscle, ug drug/g tissue [2, 10]: 671.173 ug drug/g tissue | Vancomycin in plasma [2, 10]: 8.576 µg/mL | Vancomycin in muscle, ug drug/g tissue [2, 11]: 0 ug drug/g tissue | Vancomycin in plasma [2, 11]: 0.1311 µg/mL | Vancomycin in muscle, ug drug/g tissue [2, 12]: 359.037 ug drug/g tissue | Vancomycin in plasma [2, 12]: 3.7319 µg/mL | Vancomycin in muscle, ug drug/g tissue [2, 13]: 0 ug drug/g tissue | Vancomycin in plasma [2, 13]: -0.165 µg/mL | Vancomycin in muscle, ug drug/g tissue [2, 14]: 1.642 ug drug/g tissue | Vancomycin in plasma [2, 14]: 0.01263 µg/mL | Vancomycin in muscle, ug drug/g tissue [2, 15]: 0 ug drug/g tissue | Vancomycin in plasma [2, 15]: -0.165 µg/mL | Vancomycin in muscle, ug drug/g tissue [2, 16]: 114.004 ug drug/g tissue | Vancomycin in plasma [2, 16]: 0.9602 µg/mL | Vancomycin in muscle, ug drug/g tissue [2, 17]: 2.243 ug drug/g tissue | Vancomycin in plasma [2, 17]: 1.434 µg/mL | Vancomycin in muscle, ug drug/g tissue [2, 18]: 0 ug drug/g tissue | Vancomycin in plasma [2, 18]: 0.747 µg/mL | Vancomycin in muscle, ug drug/g tissue [2, 19]: 0 ug drug/g tissue | Vancomycin in plasma [2, 19]: 0.2258 µg/mL | Vancomycin in muscle, ug drug/g tissue [2, 20]: 0 ug drug/g tissue | Vancomycin in plasma [2, 20]: 0.9365 µg/mL | Vancomycin in muscle, ug drug/g tissue [2, 21]: 0 ug drug/g tissue | Vancomycin in plasma [2, 21]: 0.3917 µg/mL | Vancomycin in muscle, ug drug/g tissue [2, 22]: 0 ug drug/g tissue | Vancomycin in plasma [2, 22]: 0.6404 µg/mL | Vancomycin in muscle, ug drug/g tissue [2, 23]: 0 ug drug/g tissue | Vancomycin in plasma [2, 23]: 0.8299 µg/mL | Vancomycin in muscle, ug drug/g tissue [2, 24]: 0 ug drug/g tissue | Vancomycin in plasma [2, 24]: 0.7352 µg/mL | Vancomycin in muscle, ug drug/g tissue ([2]; single 25 mg/Kg intramedullary dose, 48 h, HPLC, sample 5-3): 0 ug drug/g tissue | Vancomycin in muscle, ug drug/g tissue [2, 25]: 3.96 ug drug/g tissue | Vancomycin in plasma [2, 25]: 0.593 µg/mL | Vancomycin in muscle, ug drug/g tissue ([2]; single 25 mg/Kg intramedullary dose, 72 h, HPLC, sample 6-1): 0 ug drug/g tissue | Vancomycin in muscle, ug drug/g tissue [2, 26]: 0 ug drug/g tissue | Vancomycin in plasma [2, 26]: -0.03475 µg/mL | Vancomycin in muscle, ug drug/g tissue [2, 27]: 2.758 ug drug/g tissue | Vancomycin in plasma [2, 27]: 0.04816 µg/mL | Vancomycin in muscle, ug drug/g tissue [2, 28]: 0 ug drug/g tissue | Vancomycin in plasma [2, 28]: 0.2495 µg/mL | Vancomycin in muscle, ug drug/g tissue [2, 29]: 0 ug drug/g tissue | Vancomycin in plasma [2, 29]: -0.165 µg/mL | Vancomycin in muscle, ug drug/g tissue [2, 30]: 0 ug drug/g tissue | Vancomycin in plasma [2, 30]: -0.165 µg/mL | Vancomycin in muscle, ug drug/g tissue [2, 31]: 4.819 ug drug/g tissue | Vancomycin in plasma [2, 31]: -0.165 µg/mL | Vancomycin in muscle, ug drug/g tissue [2, 32]: 0 ug drug/g tissue | Vancomycin in plasma [2, 32]: -0.165 µg/mL | Vancomycin concentration in the gastrocnemius muscle, first 4h post administration [2, 33]: > 100 µg/g | Vancomycin level in the gastrocnemius muscle by 24h [2, 33]: near undetectable levels | Vancomycin concentration detected in the tibia over the 96-h study period ([2]; single 25 mg/Kg intramedullary dose, HPLC of pulverized tissue): > 100 µg/g | Vancomycin detected in the blood plasma for the entirety of the study ([2]; single 25 mg/Kg intramedullary dose, HPLC, 96 h study): Little to no vancomycin was detected | Time a supratherapeutic antimicrobial dose (>100 μg/mL) was maintained in the surrounding muscle ([2]; single 25 mg/Kg intramedullary dose, n = 4 per time point): < 6 h | Doses that severely decreased cellular proliferation [3]: greater than 2 mg/mL | Vancomycin concentration that caused cell death [4]: 10 mg/mL | Doses that severely decreased cellular proliferation [5]: greater than 2 mg/mL | Elimination half-life [6]: approximately 6 hours | Vancomycin treated rats displaying radiographic signs of osteomyelitis ([7]; rat tibia inoculated with S. aureus Xen 36 (Log10 5.5 CFU/5 μL) with simultaneous single 25 mg/Kg intramedullary dose, 14 days, n = 9): zero | Micro CT evaluation of treated rats ([7]; rat tibia inoculated with S. aureus Xen 36, single 25 mg/Kg intramedullary dose, compared to untreated controls): absent of any signs of osteomyelitis
